{
  "source": "patent US7557137B2",
  "about": "“Gamma-lactams as beta-secretase inhibitors” (Bristol-Myers Squibb Company, priority 2002, dated 2009)",
  "data": [
    {"target": "T1, BACE enzyme (Homo sapiens, UniProt P56817)", "T1 construct": "the catalytic domain, appended by a C-terminal poly-histidine tag, is secreted out into the cellular medium; made in house; host or cells: Drosophila melanogaster S2 cells", "T1 sequence (P56817 75-416 limits assumed)": "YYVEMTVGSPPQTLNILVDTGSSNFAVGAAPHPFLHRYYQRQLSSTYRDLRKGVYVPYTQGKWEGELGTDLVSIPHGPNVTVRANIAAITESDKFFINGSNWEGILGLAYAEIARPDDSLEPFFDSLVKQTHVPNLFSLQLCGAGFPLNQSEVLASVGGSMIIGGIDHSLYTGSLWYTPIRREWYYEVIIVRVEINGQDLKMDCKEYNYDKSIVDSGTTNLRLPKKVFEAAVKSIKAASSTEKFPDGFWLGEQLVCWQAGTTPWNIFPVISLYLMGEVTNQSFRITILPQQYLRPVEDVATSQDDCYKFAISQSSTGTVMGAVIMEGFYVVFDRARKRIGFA", "assay": "BACE enzyme inhibition, fluorescence-quenched peptide substrate MCA-EVNLDAEFK(DNP)", "assay_type": "biochemical", "conditions": "50 mM acetate, pH 4.5, 0.25 mg/ml bovine serum albumin, 2.5% DMSO; read-out: Activity Rating (based on IC50 values)", "source_text": "There are a number of methods by which inhibitors of the BACE enzyme can be identified experimentally. The enzyme can be obtained from membrane samples from natural tissues or cultured cells or can be expressed recombinantly in a host cell by well known methods of molecular biology. […] The enzymatic activity and/or ligand binding capability of the enzyme can be assessed within these membrane samples, or the enzyme can be purified to varying extents. As an illustrative example, the nucleic acid sequence encoding the pro and catalytic domains of human BACE can be appended on the 5′ end with an untranslated and signal sequence from the gene for acetylcholinesterase, and on the 3′ end with a sequence encoding a poly-histidine tag. This cDNA can then be expressed in Drosophila melanogaster S2 cells in which the signal and pro sequences of the transcribed/translated protein are removed by cellular proteases and the catalytic domain, appended by a C-terminal poly-histidine tag, is secreted out into the cellular medium. The enzyme can then be purified from the culture medium by nickel affinity chromatography by methods well known to those trained in the art [Mallender, W. et al., (2001) “Characterization of recombinant, soluble beta-secretase from an insect cell expression system.” Mol. Pharmacol. 59: 619-626]. Similar strategies for expressing and purifying various forms of BACE in bacterial, mammalian and other cell types would be known to one skilled in the art.\nThe enzyme thus obtained can be put in contact with a test compound and with an appropriate substrate on which enzyme-mediated peptide bond hydrolysis is known to occur. The ability of the test compound to diminish the rate of substrate hydrolysis can then be quantified as a measure of inhibition potency. Appropriate substrates can be prepared as peptides, proteins, or chemically modified versions of peptides or proteins, that contain an amino acid sequence that is recognized as a substrate by the enzyme. For example, the amino acid sequence immediately proximal to the beta-cleavage site within Swedish mutant APP is known to be recognized as a substrate for BACE. […] Longer peptide and protein substrates can also be designed by extending the amino acid composition on the N-terminal, the C-terminal, or both ends.\nIn one known application of (SEQ. ID. NO.:1), X is a 7-methoxycoumarin-4-acetyl (MCA) group and Y is a dinitrophenyl (DNP) group [Marcinkeviciene, J. et al., (2001) “Mechanism of inhibition of beta-site amyloid precursor protein-cleaving enzyme (BACE) by a statine-based peptide.” J. Biol. Chem. 276: 23790-23794]. When this peptide is intact, the natural fluorescence of the MCA group is quenched by its proximity to the DNP group. […] The increase in fluorescence intensity that accompanies enzyme-mediated peptide hydrolysis can be measured as a function of time to quantify the velocity of enzyme catalysis. In a typical assay system the BACE enzyme is diluted into a buffer system composed of 50 mM acetate, pH 4.5 containing 0.25 mg/ml bovine serum albumin. To this is added neat dimethyl sulfoxide (DMSO) or a stock solution of test compound dissolved in DMSO so that the final amount of DMSO in all assays is held constant at 2.5% (v:v). The enzymatic reaction is then initiated by addition of a stock solution of the substrate peptide to a known concentration. The fluorescence increase with time after substrate addition is monitored with an appropriate fluorescence detection instrument, such as a microplate reader or spectrofluorometer. The slope of the signal vs. time plot (progress curve) for samples to which only DMSO was added is taken as a measure of the uninhibited velocity and represents 100% enzymatic activity.", "units": {"IC50": "nM"}, "values": [
      {"smiles": "CCOC(=O)N[C@]1(C(C)CC)CCN([C@@H](CCc2ccccc2)C(=O)N[C@@H](Cc2ccccc2)[C@H](O)CNCc2cccc(OC)c2)C1=O", "note": "(single isomer, unassigned) [Example 14]", "IC50": "< 100"},
      {"smiles": "CCC(C)[C@@]1(NC(=O)OC)CCN([C@@H](CCc2ccccc2)C(=O)N[C@@H](Cc2ccccc2)[C@@H](O)CNCc2cccc(OC)c2)C1=O", "note": "(single isomer, unassigned) [Example 15]", "IC50": "1000 to 50000"},
      {"smiles": "CCC(C)[C@@]1(NC(=O)OC)CCN([C@@H](CCc2ccccc2)C(=O)N[C@@H](Cc2ccccc2)[C@H](O)CNCc2cccc(OC)c2)C1=O", "note": "(single isomer, unassigned) [Example 16]", "IC50": "< 100"},
      {"smiles": "CCC(C)[C@@]1(NC(=O)CCc2cnc[nH]2)CCN([C@@H](CCc2ccccc2)C(=O)N[C@@H](Cc2ccccc2)[C@@H](O)CNCc2cccc(OC)c2)C1=O", "note": "(single isomer, unassigned) [Example 21]", "IC50": "100 to 1000"},
      {"smiles": "CCC(C)[C@@]1(NC(=O)CN)CCN([C@@H](CCc2ccccc2)C(=O)N[C@@H](Cc2ccccc2)[C@H](O)CNCc2cccc(OC)c2)C1=O", "note": "(single isomer, unassigned) [Example 22]", "IC50": "100 to 1000"},
      {"smiles": "CCC(C)[C@@]1(NC(=O)CN)CCN([C@@H](CCc2ccccc2)C(=O)N[C@@H](Cc2ccccc2)[C@@H](O)CNCc2cccc(OC)c2)C1=O", "note": "(single isomer, unassigned) [Example 23]", "IC50": "1000 to 50000"},
      {"smiles": "COc1cccc(CNC[C@@H](O)[C@H](Cc2ccccc2)NC(=O)[C@H](CCc2ccccc2)N2CCC(CC(C)C)(NC(C)=O)C2=O)c1", "note": "(stereo in doubt) [Example 28, (2S)-2-(3(S)-acetylamino-3-(isobutyl)-2-oxo-pyrrolidin-1-yl)-N-[(1S,2R)-1-benzyl-2-hydroxy-3-(3-methoxy-benzylamino)-propyl]-4-phenyl-butyramide]", "IC50": "< 100"},
      {"smiles": "CC(=O)NC1(CC(C)C)CCN([C@@H](CCc2ccccc2)C(=O)N[C@@H](Cc2ccccc2)[C@H](O)CNCC2CC2)C1=O", "note": "(stereo in doubt) [Example 32, (2S)-2-(3(S)-acetylamino-3-(isobutyl)-2-oxo-pyrrolidin-1-yl)-N-[(1S,2R)-1-benzyl-2-hydroxy-3-(cyclopropylmethyl)amino-propyl]-4-phenyl-butyramide]", "IC50": "100 to 1000"},
      {"smiles": "COc1cccc(CNC[C@@H](O)[C@H](Cc2cc(F)cc(F)c2)NC(=O)[C@H](CCc2ccccc2OC)N2CCC(CC3CC3)(NC(C)=O)C2=O)c1", "note": "(stereo in doubt) [Example 38, (2S)-2-(3(S)-acetylamino-3-(cyclopropylmethyl)-2-oxo-pyrrolidin-1-yl)-N-[(1S,2R)-1-(3,5-difluorobenzyl)-2-hydroxy-3-(3-methoxybenzylamino)-propyl]-4-(2-methoxyphenyl)-butyramide]", "IC50": "< 100"},
      {"smiles": "COc1cccc(CNC[C@@H](O)[C@H](Cc2cc(F)cc(F)c2)NC(=O)[C@H](CCc2cccc(F)c2)N2CCC(CC3CC3)(NC(C)=O)C2=O)c1", "note": "(stereo in doubt) [Example 40, (2S)-2-(3(S)-acetylamino-3-(cyclopropylmethyl)-2-oxo-pyrrolidin-1-yl)-N-[(1S,2R)-1-(3,5-difluorobenzyl)-2-hydroxy-3-(3-methoxybenzylamino)-propyl]-4-(3-fluorophenyl)-butyramide]", "IC50": "< 100"},
      {"smiles": "COc1cccc(CNC[C@@H](O)[C@H](Cc2cc(F)cc(F)c2)NC(=O)[C@H](CCc2ccc(F)cc2)N2CCC(CC3CC3)(NC(C)=O)C2=O)c1", "note": "(stereo in doubt) [Example 41, (2S)-2-(3(S)-acetylamino-3-(cyclopropylmethyl)-2-oxo-pyrrolidin-1-yl)-N-[(1S,2R)-1-(3,5-difluorobenzyl)-2-hydroxy-3-(3-methoxybenzylamino)-propyl]-4-(4-fluorophenyl)-butyramide]", "IC50": "< 100"},
      {"smiles": "COc1cccc(CC[C@@H](C(=O)N[C@@H](Cc2cc(F)cc(F)c2)[C@H](O)CNCc2cccc(OC)c2)N2CCC(CC3CC3)(NC(C)=O)C2=O)c1", "note": "(stereo in doubt) [Example 42, (2S)-2-(3(S)-acetylamino-3-(cyclopropylmethyl)-2-oxo-pyrrolidin-1-yl)-N-[(1S,2R)-1-(3,5-difluorobenzyl)-2-hydroxy-3-(3-methoxybenzylamino)-propyl]-4-(3-methoxyphenyl)-butyramide]", "IC50": "< 100"},
      {"smiles": "COc1cccc(CNC[C@@H](O)[C@H](Cc2cc(F)cc(F)c2)NC(=O)[C@H](CCc2ccccc2)N2CC[C@](NC(C)=O)(C(C)C)C2=O)c1", "note": "[Example 1, (2S)-2-(3-Acetylamino-3-isopropyl-2-oxo-pyrrolidin-1-yl)-N-[(1S,2R)-1-(3,5-difluoro-benzyl)-2-hydroxy-3-(3-methoxy-benzylamino)-propyl]-4-phenyl-butyramide]", "IC50": "< 100"},
      {"smiles": "CC[C@H](C)[C@@]1(NC(C)=O)CCN([C@@H](CCc2ccccc2)C(=O)N[C@@H](Cc2cc(F)cc(F)c2)[C@H](O)CNCc2cccc(OC)c2)C1=O", "note": "[Example 2, (2S)-2-(3(S)-Acetylamino-3-((S)-sec-butyl)-2-oxo-pyrrolidin-1-yl)-N-[(1S,2R)-1-(3,5-difluoro-benzyl)-2-hydroxy-3-(3-methoxy-benzylamino)-propyl]-4-phenyl-butyramide]", "IC50": "< 100"},
      {"smiles": "CC[C@H](C)[C@@]1(NC(C)=O)CCN([C@@H](CCc2ccccc2)C(=O)N[C@@H](Cc2ccccc2)[C@H](O)CNCc2cccc(OC)c2)C1=O", "note": "[Example 3, (2S)-2-(3(S)-Acetylamino-3-((S)-sec-butyl)-2-oxo-pyrrolidin-1-yl)-N-[(1S,2R)-1-benzyl-2-hydroxy-3-(3-methoxy-benzylamino)-propyl]-4-phenyl-butyramide]", "IC50": "< 100"},
      {"smiles": "CCC(=O)N[C@]1([C@@H](C)CC)CCN([C@@H](CCc2ccccc2)C(=O)N[C@@H](CC(C)C)[C@H](O)CNCc2cccc(OC)c2)C1=O", "note": "[Example 4, 2(S)-(3(S)-((S)-sec-butyl)-2-oxo-3-propionylamino-pyrrolidin-1-yl)-N—(S)-{1(R)-[1-hydroxy-2-(3-methoxy-benzylamino)-ethyl]-3-methyl-butyl}-4-phenyl-butyramide]", "IC50": "100 to 1000"},
      {"smiles": "CC[C@H](C)[C@@]1(NC(=O)COC)CCN([C@@H](CCc2ccccc2)C(=O)N[C@@H](CC(C)C)[C@H](O)CNCc2cccc(OC)c2)C1=O", "note": "[Example 5, (2S)-2-(3-((S)-sec-butyl)-3-(2-methoxy-acetylamino)-2-oxo-pyrrolidin-1-yl)-N—(S)-{1(R)-[1-hydroxy-2-(3-methoxy-benzylamino)-ethyl]-3-methyl-butyl}-4-phenyl-butyramide]", "IC50": "1000 to 50000"},
      {"smiles": "COc1cccc(CNC[C@@H](O)[C@H](Cc2ccccc2)NC(=O)[C@H](CCc2ccccc2)N2CC[C@@](CC3CC3)(NC(C)=O)C2=O)c1", "note": "[Example 6, (2S)-2-(3(R)-Acetylamino-3(-cyclopropylmethyl)-2-oxo-pyrrolidin-1-yl)-N-[(1S,2R)-1-benzyl-2-hydroxy-3-(3-methoxy-benzylamino)-propyl]-4-phenyl-butyramide]", "IC50": "1000 to 50000"},
      {"smiles": "COc1cccc(CNC[C@@H](O)[C@H](Cc2ccccc2)NC(=O)[C@H](CCc2ccccc2)N2CC[C@](CC3CC3)(NC(C)=O)C2=O)c1", "note": "[Example 7, (2S)-2-(3(S)-Acetylamino-3(-cyclopropylmethyl)-2-oxo-pyrrolidin-1-yl)-N-[(1S,2R)-1-benzyl-2-hydroxy-3-(3-methoxy-benzylamino)-propyl]-4-phenyl-butyramide]", "IC50": "< 100"},
      {"smiles": "CC[C@H](C)[C@@]1(NC(=O)[C@@H](N)CCC(=O)O)CCN([C@@H](CCc2ccccc2)C(=O)N[C@@H](Cc2ccccc2)[C@H](O)CNCc2cccc(OC)c2)C1=O", "note": "[Example 8]", "IC50": "< 100"},
      {"smiles": "CC[C@H](C)[C@@]1(NC(=O)COC)CCN([C@@H](CCc2ccccc2)C(=O)N[C@@H](Cc2ccccc2)[C@H](O)CNCc2cccc(OC)c2)C1=O", "note": "[Example 9, (2S)-2-(3(S)-(2-methoxy-acetylamino)-3-((S)-sec-butyl)-2-oxo-pyrrolidin-1-yl)-N-[(1S,2R)-1-benzyl-2-hydroxy-3-(3-methoxy-benzylamino)-propyl]-4-phenyl-butyramide]", "IC50": "< 100"}
    ]}
  ]
}
